Data as given in BindingDB's records for patent US10494376 (CTXT PTY. LTD., 2019).

Molecular target: Protein arginine N-methyltransferase 5 (Homo sapiens, UniProt O14744)
Assay: Revised Biochemical Assay
Procedure: Compounds of the invention may be tested for in vitro activity in the following assay: A histone H4 derived peptide is used as substrate (amino acid sequence: […]N H2). Full-length PRMT5 enzyme (NCBI Reference sequence NP_006100.2) was co-expressed with His6-MEP50 in insect cells and purified via Nickel immobilized metal affinity and gel filtration chromatography (the enzyme).The 6 μL reactions are run in Greiner brand black 384-well low volume assay plates. All reactions contained assay buffer (phosphate buffered saline, 0.01% (v/v) Tween-20, 0.01% (w/v) albumin from chicken egg white, 1 mM Dithiothreitol, 1 μM peptide substrate, 1 μM S-Adenosyl methionine, and 15 ng/reaction enzyme, with the enzyme being omitted from negative control reactions. Compounds were added in a volume of 100 nL from dilution series prepared in DMSO, positive and negative control reactions receiving the same volume DMSO without compound. The plates were sealed with adhesive seals and incubated for 4 hours at 37 degree Celsius. Reaction progress was measured using the Transcreener EPIGEN methyltransferase assay (BellBrook Labs, Madison, Wis.) as recommended by the manufacturer. To each reaction 2 μL detection mix were added, containing coupling enzymes, fluorescence polarisation tracer, and AMP antibody. […]

Protein arginine N-methyltransferase 5, sequence (O14744 whole entry): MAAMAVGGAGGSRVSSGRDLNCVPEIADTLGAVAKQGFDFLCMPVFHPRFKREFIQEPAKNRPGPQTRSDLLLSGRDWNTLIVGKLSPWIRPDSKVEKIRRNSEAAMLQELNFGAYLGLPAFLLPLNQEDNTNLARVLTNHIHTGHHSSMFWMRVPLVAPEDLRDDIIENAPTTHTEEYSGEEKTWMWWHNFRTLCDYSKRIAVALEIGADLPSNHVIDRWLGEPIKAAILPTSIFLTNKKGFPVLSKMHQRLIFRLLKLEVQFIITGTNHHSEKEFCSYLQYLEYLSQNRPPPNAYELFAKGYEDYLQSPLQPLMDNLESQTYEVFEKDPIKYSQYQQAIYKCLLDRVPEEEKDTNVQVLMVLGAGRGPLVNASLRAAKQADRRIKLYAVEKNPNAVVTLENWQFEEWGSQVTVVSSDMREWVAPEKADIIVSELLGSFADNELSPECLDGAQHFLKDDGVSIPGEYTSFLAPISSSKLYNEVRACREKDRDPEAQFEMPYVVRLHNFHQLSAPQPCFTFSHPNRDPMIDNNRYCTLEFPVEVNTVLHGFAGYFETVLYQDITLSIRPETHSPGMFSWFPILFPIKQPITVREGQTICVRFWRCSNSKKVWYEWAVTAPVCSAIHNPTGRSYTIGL

Which IC50 does the source give for `COC(=O)N1CCC(N(C)C(=O)c2ccc(C(=O)NC[C@@H](O)[C@@H]3Cc4ccccc4CN3)cc2)CC1` [US10494376, Example 20] here?
Its IC50 is 11.7 µM.
